molecular target: T1, Axl (Homo sapiens, UniProt P30530); assay: Axl NanoBRET intracellular kinase assay (intracellular binding, Cell Binding); parameters: host or cells: HEK-293; details: HEK-293 cells transfected with Axl-NanoLuc fusion vector; 0.35 μM K-5 NanoBRET tracer
T1 sequence (P30530 26-894): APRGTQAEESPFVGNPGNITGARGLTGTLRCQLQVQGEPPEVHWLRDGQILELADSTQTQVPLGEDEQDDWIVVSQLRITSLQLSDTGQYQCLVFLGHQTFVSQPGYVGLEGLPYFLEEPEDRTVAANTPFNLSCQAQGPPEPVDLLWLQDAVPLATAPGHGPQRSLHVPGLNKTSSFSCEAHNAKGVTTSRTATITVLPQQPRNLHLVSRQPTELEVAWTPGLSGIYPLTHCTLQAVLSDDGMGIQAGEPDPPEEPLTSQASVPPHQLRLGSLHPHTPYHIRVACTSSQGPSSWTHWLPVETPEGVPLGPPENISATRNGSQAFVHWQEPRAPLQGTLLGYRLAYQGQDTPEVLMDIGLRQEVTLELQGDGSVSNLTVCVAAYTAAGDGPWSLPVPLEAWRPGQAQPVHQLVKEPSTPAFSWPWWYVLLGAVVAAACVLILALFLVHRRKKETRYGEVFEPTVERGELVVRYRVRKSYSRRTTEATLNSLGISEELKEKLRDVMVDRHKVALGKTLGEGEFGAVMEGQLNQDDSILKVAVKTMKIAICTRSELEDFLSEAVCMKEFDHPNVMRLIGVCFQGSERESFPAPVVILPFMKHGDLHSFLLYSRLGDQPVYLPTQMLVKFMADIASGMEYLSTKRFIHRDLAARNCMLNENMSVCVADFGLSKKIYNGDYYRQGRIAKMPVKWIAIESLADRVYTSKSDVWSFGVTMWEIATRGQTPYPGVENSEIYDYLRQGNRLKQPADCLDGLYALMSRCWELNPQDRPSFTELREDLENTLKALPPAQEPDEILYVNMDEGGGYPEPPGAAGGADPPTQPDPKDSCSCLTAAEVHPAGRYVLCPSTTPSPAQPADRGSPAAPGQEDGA
Protocol: Axl NanoBRET™ intracellular kinase assay (Promega, N2540) was performed according to manufacturer's recommendation. In brief, HEK-293 cells are transiently transfected with Axl-NanoLuc fusion vector (Promega, NV1071), utilizing Fugene HD transfection reagent (Promega, E2311) a day before experiment following manufacturer's recommendation.
The day of the assay, the cells were collected and resuspended in Opti-MEM media (ThermoFisher, 31985070) at 2e5 cells/mL concentration. Testing compounds were serial diluted and dispensed into a white 384 well polystyrene plate at 200 nL in 100% DMSO. 40 μL of resuspended cells is then added per well for a final condition of 8K cells/well with 0.5% DMSO. After one-hour compound pre-incubation at 37° C. and 5% CO2, cells were further incubated with 0.35 μM K-5 NanoBRET tracer for two-hours at 37° C. and 5% CO2. […] of 3× substrate plus Inhibitor solution was prepared according to kits manual and added to the cells followed by a 30 second pulse centrifugation spin. The plate was then immediately read utilizing an Envision (Perkin Elmer) plate reader. The BRET signal is measured by taking the ratio of the emissions reading at 610 nm and 450 nm. Compound binding is based on the decrease BRET signal caused by the displacement of the K-5 tracer. […] IC50 value of compounds was determined by 4-parameter non-linear regression fitting of percent activity in GraphPad Prism software.

`C[C@@H]1CCCN1C1CCc2ccc(-c3cnc4[nH]nc(-c5ccc(C(C)(C)O)c(C(F)(F)F)c5)c4c3)cc2CC1` (stereo partly drawn) [Example 20, 2-[4-(5-{7-[(2R)-2-Methylpyrrolidin-1-yl]-6,7,8,9-tetrahydro-5H-benzo[7]annulen-2-yl}-1H-pyrazolo[3,4-b]pyridin-3-yl)-2-(trifluoromethyl)phenyl]propan-2-ol] and `C[C@@H]1CCCN1C1CCc2ccc(-c3cnc4[nH]nc(-c5ccc(C(C)(C)O)c(Cl)c5)c4c3)cc2CC1` (stereo partly drawn) [Example 35, 2-(2-Chloro-4-(5-(7-((R)-2-methylpyrrolidin-1-yl)-6,7,8,9-tetrahydro-5H-benzo[7]annulen-2-yl)-1H-pyrazolo[3,4-b]pyridin-3-yl)phenyl)propan-2-ol] cannot be ordered by IC50: < 100 nM for the first, < 100 nM for the second.

`CC(C)(O)c1ccc(-c2n[nH]c3ncc(-c4ccc5c(c4)CCC(N4CCC[C@@H]4CO)CC5)cc23)cc1Cl` (stereo partly drawn) [Example 21, 2-[2-Chloro-4-(5-{7-[(2R)-2-(hydroxymethyl)pyrrolidin-1-yl]-6,7,8,9-tetrahydro-5H-benzo[7]annulen-2-yl}-1H-pyrazolo[3,4-b]pyridin-3-yl)phenyl]propan-2-ol] and `C[C@H]1CCCN1C1CCc2ccc(-c3cnc4[nH]nc(-c5ccc(C(C)(C)O)c(Cl)c5)c4c3)cc2CC1` (stereo partly drawn) [Example 37, 2-(2-Chloro-4-(5-(7-((S)-2-methylpyrrolidin-1-yl)-6,7,8,9-tetrahydro-5H-benzo[7]annulen-2-yl)-1H-pyrazolo[3,4-b]pyridin-3-yl)phenyl)propan-2-ol] cannot be ordered by IC50: < 100 nM for the first, < 100 nM for the second.

`C[C@@H]1CCCN1C1(C)CCc2ccc(-c3cnc4[nH]nc(-c5ccc(C(C)(C)O)nc5)c4c3)cc2CC1` (stereo partly drawn) [Example 22, 2-[5-(5-{7-Methyl-7-[(2R)-2-methylpyrrolidin-1-yl]-6,7,8,9-tetrahydro-5H-benzo[7]annulen-2-yl}-1H-pyrazolo[3,4-b]pyridin-3-yl)pyridin-2-yl]propan-2-ol] and `C[C@@H]1CCCN1C1(C)CCc2ccc(-c3cnc4[nH]nc(-c5ccc(S(=O)(=O)C6CCC6)cc5)c4c3)cc2CC1` (stereo partly drawn) [Example 46, 3-(4-(Cyclobutylsulfonyl)phenyl)-5-(7-methyl-7-((R)-2-methylpyrrolidin-1-yl)-6,7,8,9-tetrahydro-5H-benzo[7]annulen-2-yl)-1H-pyrazolo[3,4-b]pyridine] cannot be ordered by IC50: < 100 nM for the first, < 100 nM for the second.

First: CS(=O)(=O)N1CCC(c2n[nH]c3ncc(-c4ccc5c(c4)CCC(N4CCCC4)CC5)cc23)CC1 (stereo not shown) [Example 23, 1-Methanesulfonyl-4-{5-[7-(pyrrolidin-1-yl)-6,7,8,9-tetrahydro-5H-benzo[7]annulen-2-yl]-1H-pyrazolo[3,4-b]pyridin-3-yl}piperidine]
Second: O=S(=O)(c1ccc(-c2n[nH]c3ncc(-c4ccc5c(c4)CC[C@@H](N4CCCC4)CC5)cc23)cc1)C1CC1 [Example 40, (S)-3-(4-(Cyclopropylsulfonyl)phenyl)-5-(7-(pyrrolidin-1-yl)-6,7,8,9-tetrahydro-5H-benzo[7]annulen-2-yl)-1H-pyrazolo[3,4-b]pyridine]
The IC50 of the first is higher: 100 to 1000 nM for the first, < 100 nM for the second.

`C[C@H]1CCCN1C1CCc2ccc(-c3cnc4[nH]nc(-c5ccc(S(=O)(=O)C6CC6)cc5)c4c3)cc2CC1` (stereo partly drawn) [Example 24, 3-(4-(Cyclopropylsulfonyl)phenyl)-5-(7-((S)-2-methylpyrrolidin-1-yl)-6,7,8,9-tetrahydro-5H-benzo[7]annulen-2-yl)-1H-pyrazolo[3,4-b]pyridine] and `C[C@@H]1CCCN1C1CCc2ccc(-c3cnc4[nH]nc(-c5ccc(S(=O)(=O)C6CC6)cc5)c4c3)cc2CC1` (stereo partly drawn) [Example 39, 3-(4-(Cyclopropylsulfonyl)phenyl)-5-(7-((R)-2-methylpyrrolidin-1-yl)-6,7,8,9-tetrahydro-5H-benzo[7]annulen-2-yl)-1H-pyrazolo[3,4-b]pyridine] cannot be ordered by IC50: < 100 nM for the first, < 100 nM for the second.

First: C[C@@H]1CCCN1C1(C)CCc2ccc(-c3cnc4[nH]nc(-c5ccc(S(=O)(=O)C6CC6)c(F)c5)c4c3)cc2CC1 (stereo partly drawn) [Example 25, (2R)-1-(2-{3-[4-(Cyclopropanesulfonyl)-3-fluorophenyl]-1H-pyrazolo[3,4-b]pyridin-5-yl}-7-methyl-6,7,8,9-tetrahydro-5H-benzo[7]annulen-7-yl)-2-methylpyrrolidine]
Second: C[C@@H]1CCCN1C1(C)CCc2ccc(-c3cnc4[nH]nc(-c5ccc(S(=O)(=O)C6CCCC6)cc5)c4c3)cc2CC1 (stereo partly drawn) [Example 45, 3-(4-(Cyclopentylsulfonyl)phenyl)-5-(7-methyl-7-((R)-2-methylpyrrolidin-1-yl)-6,7,8,9-tetrahydro-5H-benzo[7]annulen-2-yl)-1H-pyrazolo[3,4-b]pyridine]
The IC50 of the first is lower: < 100 nM for the first, 100 to 1000 nM for the second. The first is the more potent here.

`O=S(=O)(c1ccc(-c2n[nH]c3ncc(-c4ccc5c(c4)CCN(C4CCOCC4)CC5)cc23)cc1)C1CC1` [Example 26, 7-{3-[4-(Cyclopropanesulfonyl)phenyl]-1H-pyrazolo[3,4-b]pyridin-5-yl}-3-(oxan-4-yl)-2,3,4,5-tetrahydro-1H-3-benzazepine] and `O=S(=O)(c1ccc(-c2n[nH]c3ncc(-c4ccc5c(c4)CCN(CC4CCOC4)CC5)cc23)cc1)C1CC1` (stereo not shown) [Example 27, 7-{3-[4-(Cyclopropanesulfonyl)phenyl]-1H-pyrazolo[3,4-b]pyridin-5-yl}-3-[(oxolan-3-yl)methyl]-2,3,4,5-tetrahydro-1H-3-benzazepine] fall in the same range of IC50: 100 to 1000 nM for the first, 100 to 1000 nM for the second.

`CS(=O)(=O)c1ccc(-c2n[nH]c3ncc(-c4ccc5c(c4)CCN(C4CCCC4)CC5)cc23)cc1` [Example 30, 3-Cyclopentyl-7-(3-(4-(methylsulfonyl)phenyl)-1H-pyrazolo[3,4-b]pyridin-5-yl)-2,3,4,5-tetrahydro-1H-benzo[d]azepine] and `CS(=O)(=O)c1ccc(-c2n[nH]c3ncc(-c4ccc5c(c4)CCN(C4CCCC4)CC5)cc23)cc1Cl` [Example 31, 7-(3-(3-Chloro-4-(methylsulfonyl)phenyl)-1H-pyrazolo[3,4-b]pyridin-5-yl)-3-cyclopentyl-2,3,4,5-tetrahydro-1H-benzo[d]azepine] fall in the same range of IC50: 100 to 1000 nM for the first, 100 to 1000 nM for the second.

First: CS(=O)(=O)c1ccc(-c2n[nH]c3ncc(-c4ccc5c(c4)CCN(C4CCCC4)CC5)cc23)cc1F [Example 32, 3-Cyclopentyl-7-(3-(3-fluoro-4-(methylsulfonyl)phenyl)-1H-pyrazolo[3,4-b]pyridin-5-yl)-2,3,4,5-tetrahydro-1H-benzo[d]azepine]
Second: CCS(=O)(=O)c1ccc(-c2n[nH]c3ncc(-c4ccc5c(c4)CC[C@@H](N4CCCC4)CC5)cc23)cc1 [Example 41, (S)-3-(4-(Ethylsulfonyl)phenyl)-5-(7-(pyrrolidin-1-yl)-6,7,8,9-tetrahydro-5H-benzo[7]annulen-2-yl)-1H-pyrazolo[3,4-b]pyridine]
The IC50 of the first is higher: 100 to 1000 nM for the first, < 100 nM for the second. The second is the more potent here.

Compared with `COCCN1CCc2ccc(-c3cnc4[nH]nc(-c5ccc(C(C)(C)O)c(Cl)c5)c4c3)cc2CC1` [Example 34, 2-(2-Chloro-4-(5-(3-(2-methoxyethyl)-2,3,4,5-tetrahydro-1H-benzo[d]azepin-7-yl)-1H-pyrazolo[3,4-b]pyridin-3-yl)phenyl)propan-2-ol], `C[C@H]1CCCN1C1CCc2ccc(-c3cnc4[nH]nc(-c5ccc(S(C)(=O)=O)cc5)c4c3)cc2CC1` (stereo partly drawn) [Example 36, 5-(7-((S)-2-Methylpyrrolidin-1-yl)-6,7,8,9-tetrahydro-5H-benzo[7]annulen-2-yl)-3-(4-(methylsulfonyl)phenyl)-1H-pyrazolo[3,4-b]pyridine] is lower in IC50: > 1000 nM for the first, < 100 nM for the second. The second is the more potent here.

`C[C@@H]1CCCN1C1CCc2ccc(-c3cnc4[nH]nc(-c5ccc(S(C)(=O)=O)cc5)c4c3)cc2CC1` (stereo partly drawn) [Example 38, 5-(7-((R)-2-Methylpyrrolidin-1-yl)-6,7,8,9-tetrahydro-5H-benzo[7]annulen-2-yl)-3-(4-(methylsulfonyl)phenyl)-1H-pyrazolo[3,4-b]pyridine] and `CC(C)S(=O)(=O)c1ccc(-c2n[nH]c3ncc(-c4ccc5c(c4)CC[C@@H](N4CCCC4)CC5)cc23)cc1` [Example 42, (S)-3-(4-(Isopropylsulfonyl)phenyl)-5-(7-(pyrrolidin-1-yl)-6,7,8,9-tetrahydro-5H-benzo[7]annulen-2-yl)-1H-pyrazolo[3,4-b]pyridine] cannot be ordered by IC50: < 100 nM for the first, < 100 nM for the second.
